Measurements as given in the supplement of paper PMC10307832.

What was measured:
Assay in all cases: relative viability (nuclei count vs DMSO), 5 days (fraction); higher = more cells survive
[1] = compound: Cc1ccc(F)c(NC(=O)Nc2ccc(-c3cccc4[nH]nc(N)c34)cc2)c1 [Linifanib]
Summary of the method: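 On vehicle-anchored 1536-well plates, lung cancer cell lines held overnight at 37 °C were pinned with five library-drug doses (not always all listed) spaced by √10. With no medium change over 5 days, they were then fixed, permeabilised and Hoechst-stained in one step and imaged at 4×. MetaXpress counted nuclei, and viability is the median across plates of treated-well over vehicle-well nuclei. Acceptance needed control CV below 25% and at least one doubling.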

[2] = compound: Cc1ccc(F)c(NC(=O)Nc2ccc(-c3cccc4[nH]nc(N)c34)cc2)c1 [Linifanib] + CC(C)C[C@H](NC(=O)[C@H](Cc1ccccc1)NC(=O)c1cnccn1)B(O)O [Bortezomib] (partner 0.002 µM)
Summary of the method: (§1)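 A single step with final 0.05% Triton X-100, 1% formaldehyde and 1 ug/ml Hoechst fixed the cells and stained nuclei 5 days after treatment. Lung cancer cell lines in 1536-well plates had been treated by pin tool the day after seeding with one drug alone or a fixed anchor-drug dose plus five library-drug doses (not always all listed) in √10 steps, and nuclei were counted on 4× images. Relative viability is the ratio of nuclei in treated wells to nuclei in vehicle wells, taken as the median of duplicate plates.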

[3] = compound: Cc1ccc(F)c(NC(=O)Nc2ccc(-c3cccc4[nH]nc(N)c34)cc2)c1 [Linifanib] + CC1(C)CCC(c2ccc(Cl)cc2)=C(CN2CCN(c3ccc(C(=O)NS(=O)(=O)c4ccc(N[C@H](CCN5CCOCC5)CSc5ccccc5)c(S(=O)(=O)C(F)(F)F)c4)cc3)CC2)C1 [Navitoclax] (partner 0.5 µM)
Summary of the method: as §1

[4] = compound: Cc1ccc(F)c(NC(=O)Nc2ccc(-c3cccc4[nH]nc(N)c34)cc2)c1 [Linifanib] + COc1cc2c(Oc3ccc(NC(=O)C4(C(=O)Nc5ccc(F)cc5)CC4)cc3F)ccnc2cc1OCCCN1CCOCC1 [Foretinib] (partner 0.25 µM)
Summary of the method: as §1

[5] = compound: Cc1ccc(F)c(NC(=O)Nc2ccc(-c3cccc4[nH]nc(N)c34)cc2)c1 [Linifanib] + CS(=O)(=O)CCNCc1ccc(-c2ccc3ncnc(Nc4ccc(OCc5cccc(F)c5)c(Cl)c4)c3c2)o1 [Lapatinib] (partner 2 µM)
Summary of the method: as §1

[6] = compound: Cc1ccc(F)c(NC(=O)Nc2ccc(-c3cccc4[nH]nc(N)c34)cc2)c1 [Linifanib] + CS(=O)(=O)N1CCN(Cc2cc3nc(-c4cccc5[nH]ncc45)nc(N4CCOCC4)c3s2)CC1 [Pictilisib] (partner 1 µM)
Summary of the method: as §1

[7] = compound: Cc1ccc(F)c(NC(=O)Nc2ccc(-c3cccc4[nH]nc(N)c34)cc2)c1 [Linifanib] + C[C@@H](Oc1cc(-c2cnn(C3CCNCC3)c2)cnc1N)c1c(Cl)ccc(F)c1Cl [Crizotinib] (partner 1 µM)
Summary of the method: as §1

[8] = compound: Cc1ccc(F)c(NC(=O)Nc2ccc(-c3cccc4[nH]nc(N)c34)cc2)c1 [Linifanib] + C[C@]1(O)C[C@@H](c2nc(-c3ccc4ccc(-c5ccccc5)nc4c3)c3c(N)nccn32)C1 [Linsitinib] (partner 1 µM)
Summary of the method: as §1

[9] = compound: Cc1ccc(F)c(NC(=O)Nc2ccc(-c3cccc4[nH]nc(N)c34)cc2)c1 [Linifanib] + Cc1nc(NC(=O)N2CCC[C@H]2C(N)=O)sc1-c1ccnc(C(C)(C)C(F)(F)F)c1 [Alpelisib] (partner 2 µM)
Summary of the method: as §1

[10] = compound: Cc1ccc(F)c(NC(=O)Nc2ccc(-c3cccc4[nH]nc(N)c34)cc2)c1 [Linifanib] + O=C(CCCCCCC(=O)Nc1ccccc1)NO [Vorinostat] (partner 1 µM)
Summary of the method: as §1

[11] = compound: Cc1ccc(F)c(NC(=O)Nc2ccc(-c3cccc4[nH]nc(N)c34)cc2)c1 [Linifanib] + O=C(c1cc(Cc2n[nH]c(=O)c3ccccc23)ccc1F)N1CCN(C(=O)C2CC2)CC1 [Olaparib] (partner 8 µM)
Summary of the method: as §1

[12] = compound: Cc1ccc(F)c(NC(=O)Nc2ccc(-c3cccc4[nH]nc(N)c34)cc2)c1 [Linifanib] + CC(=O)Nc1cccc(-n2c(=O)n(C3CC3)c(=O)c3c(Nc4ccc(I)cc4F)n(C)c(=O)c(C)c32)c1 [Trametinib] (partner 0.02 µM)
Summary of the method: as §1

[13] = compound: Cc1ccc(F)c(NC(=O)Nc2ccc(-c3cccc4[nH]nc(N)c34)cc2)c1 [Linifanib] + CC(=O)c1c(C)c2cnc(Nc3ccc(N4CCNCC4)cn3)nc2n(C2CCCC2)c1=O [Palbociclib] (partner 0.5 µM)
Summary of the method: as §1

[14] = compound: Cc1ccc(F)c(NC(=O)Nc2ccc(-c3cccc4[nH]nc(N)c34)cc2)c1 [Linifanib] + CCNC(=O)c1noc(-c2cc(C(C)C)c(O)cc2O)c1-c1ccc(CN2CCOCC2)cc1 [Luminespib] (partner 0.01 µM)
Summary of the method: as §1

[15] = compound: Cc1ccc(F)c(NC(=O)Nc2ccc(-c3cccc4[nH]nc(N)c34)cc2)c1 [Linifanib] + COc1cccc2cc(-c3nc([C@H]4CC[C@H](C(=O)O)CC4)n4ncnc(N)c34)[nH]c12 [OSI-027] (partner 0.5 µM)
Summary of the method: as §1

[16] = compound: Cc1ccc(F)c(NC(=O)Nc2ccc(-c3cccc4[nH]nc(N)c34)cc2)c1 [Linifanib] + Cc1cc(Nc2cc(N3CCN(C)CC3)nc(Sc3ccc(NC(=O)C4CC4)cc3)n2)n[nH]1 [Tozasertib] (partner 0.1 µM)
Summary of the method: as §1

[17] = compound: Cc1ccc(F)c(NC(=O)Nc2ccc(-c3cccc4[nH]nc(N)c34)cc2)c1 [Linifanib] + Cc1nc(Nc2ncc(C(=O)Nc3c(C)cccc3Cl)s2)cc(N2CCN(CCO)CC2)n1 [Dasatinib] (partner 0.075 µM)
Summary of the method: as §1

[18] = compound: Cc1ccc(F)c(NC(=O)Nc2ccc(-c3cccc4[nH]nc(N)c34)cc2)c1 [Linifanib] + N=C(N)NC(=N)NCCc1ccccc1 [Phenformin] (partner 250 µM)
Summary of the method: as §1

[19] = compound: Cc1ccc(F)c(NC(=O)Nc2ccc(-c3cccc4[nH]nc(N)c34)cc2)c1 [Linifanib] + NC(=O)Nc1cc(-c2cccc(F)c2)sc1C(=O)N[C@H]1CCCNC1 [AZD7762] (partner 0.2 µM)
Summary of the method: as §1

[20] = compound: Cc1ccc(F)c(NC(=O)Nc2ccc(-c3cccc4[nH]nc(N)c34)cc2)c1 [Linifanib] + Nc1nc2[nH]cc(CCc3ccc(C(=O)N[C@@H](CCC(=O)O)C(=O)O)cc3)c2c(=O)[nH]1 [Pemetrexed] (partner 0.2 µM)
Summary of the method: as §1

[21] = compound: Cc1ccc(F)c(NC(=O)Nc2ccc(-c3cccc4[nH]nc(N)c34)cc2)c1 [Linifanib] + Nc1ncn([C@H]2C[C@H](O)[C@@H](CO)O2)c(=O)n1 [Decitabine] (partner 2 µM)
Summary of the method: as §1

IA-LM
relative viability ([1]; 0.03162 µM): 0.983 | relative viability ([1]; 0.1 µM): 0.84 | relative viability ([1]; 0.3162 µM): 0.914 | relative viability ([2]; first compound 0.03162 µM): 0.752 | relative viability ([2]; first compound 0.1 µM): 0.974 | relative viability ([2]; first compound 0.3162 µM): 0.846 | relative viability ([3]; first compound 0.03162 µM): 0.855 | relative viability ([3]; first compound 0.1 µM): 0.947 | relative viability ([3]; first compound 0.3162 µM): 0.656 | relative viability ([4]; first compound 0.03162 µM): 1.2 | relative viability ([4]; first compound 0.1 µM): 1.18 | relative viability ([4]; first compound 0.3162 µM): 1.15 | relative viability ([5]; first compound 0.03162 µM): 0.718 | relative viability ([5]; first compound 0.3162 µM): 0.713 | relative viability ([6]; first compound 0.03162 µM): 0.313 | relative viability ([6]; first compound 0.1 µM): 0.319 | relative viability ([6]; first compound 0.3162 µM): 0.338 | relative viability ([7]; first compound 0.03162 µM): 0.806 | relative viability ([7]; first compound 0.3162 µM): 0.768 | relative viability ([8]; first compound 0.03162 µM): 0.611 | relative viability ([8]; first compound 0.1 µM): 0.46 | relative viability ([8]; first compound 0.3162 µM): 0.55 | relative viability ([9]; first compound 0.03162 µM): 0.588 | relative viability ([9]; first compound 0.1 µM): 0.872 | relative viability ([9]; first compound 0.3162 µM): 0.643 | relative viability ([10]; first compound 0.03162 µM): 0.841 | relative viability ([10]; first compound 0.1 µM): 0.906 | relative viability ([10]; first compound 0.3162 µM): 1.33 | relative viability ([11]; first compound 0.03162 µM): 0.901 | relative viability ([11]; first compound 0.1 µM): 0.81 | relative viability ([11]; first compound 0.3162 µM): 0.8

NCI-H522
relative viability ([1]; 0.03162 µM): 0.943 | relative viability ([1]; 0.1 µM): 1.02 | relative viability ([1]; 0.3162 µM): 0.995 | relative viability ([12]; first compound 0.03162 µM): 0.643 | relative viability ([12]; first compound 0.1 µM): 0.713 | relative viability ([12]; first compound 0.3162 µM): 0.736 | relative viability ([13]; first compound 0.03162 µM): 1.05 | relative viability ([13]; first compound 0.1 µM): 0.954 | relative viability ([13]; first compound 0.3162 µM): 0.995 | relative viability ([14]; first compound 0.03162 µM): 1.18 | relative viability ([14]; first compound 0.1 µM): 0.98 | relative viability ([14]; first compound 0.3162 µM): 1.13 | relative viability ([15]; first compound 0.03162 µM): 0.815 | relative viability ([15]; first compound 0.1 µM): 0.721 | relative viability ([15]; first compound 0.3162 µM): 0.719 | relative viability ([16]; first compound 0.03162 µM): 0.556 | relative viability ([16]; first compound 0.1 µM): 0.542 | relative viability ([16]; first compound 0.3162 µM): 0.474 | relative viability ([17]; first compound 0.03162 µM): 0.862 | relative viability ([17]; first compound 0.1 µM): 0.868 | relative viability ([17]; first compound 0.3162 µM): 0.871 | relative viability ([18]; first compound 0.03162 µM): 0.716 | relative viability ([18]; first compound 0.1 µM): 0.647 | relative viability ([18]; first compound 0.3162 µM): 0.551 | relative viability ([19]; first compound 0.03162 µM): 0.879 | relative viability ([19]; first compound 0.1 µM): 0.804 | relative viability ([19]; first compound 0.3162 µM): 0.809 | relative viability ([20]; first compound 0.03162 µM): 0.945 | relative viability ([20]; first compound 0.1 µM): 0.798 | relative viability ([20]; first compound 0.3162 µM): 1.06 | relative viability ([21]; first compound 0.03162 µM): 0.613 | relative viability ([21]; first compound 0.1 µM): 0.703 | relative viability ([21]; first compound 0.3162 µM): 0.759 | relative viability ([10]; first compound 0.03162 µM): 0.851 | relative viability ([10]; first compound 0.1 µM): 0.88 | relative viability ([10]; first compound 0.3162 µM): 0.929 | relative viability ([11]; first compound 0.03162 µM): 0.555 | relative viability ([11]; first compound 0.1 µM): 0.693 | relative viability ([11]; first compound 0.3162 µM): 0.667
